Measured values published in ChEMBL document CHEMBL1148751, “Optimization of the indenone ring of indenoisoquinoline topoisomerase I inhibitors” (2007).

Legend:
Format in all cases: functional
[1] = tested on: HOP-62; assay: Cytotoxicity against human HOP62 cells
[2] = tested on: UACC-62; assay: Cytotoxicity against human UACC62 cells
[3] = tested on: HCT-116; assay: Cytotoxicity against human HCT116 cells
[4] = tested on: SF-539; assay: Cytotoxicity against human SF539 cells
[5] = tested on: OVCAR-3; assay: Cytotoxicity against human OVCAR-3 cells
[6] = tested on: DU-145; assay: Cytotoxicity against human DU145 cells
[7] = tested on: MDA-MB-435; assay: Cytotoxicity against human MDA-MB-435 cells
[8] = tested on: SN12C; assay: Cytotoxicity against human SN12C cells

| Structure (SMILES) | GI50 [1] [nM] | GI50 [2] [nM] | GI50 [3] [nM] | GI50 [4] [nM] | GI50 [5] [nM] | GI50 [6] [nM] | GI50 [7] [nM] | GI50 [8] [nM] |
| --- | --- | --- | --- | --- | --- | --- | --- | --- |
| O=C1c2ccccc2-c2c1c1ccc([N+](=O)[O-])cc1c(=O)n2CCCCl | 43600 |  |  |  |  |  |  |  |
| [N-]=[N+]=NCCCn1c2c(c3ccc([N+](=O)[O-])cc3c1=O)C(=O)c1ccccc1-2 |  | 29500 |  |  |  |  |  |  |
| COc1ccc2c(c1)C(=O)c1c-2n(CCCN=[N+]=[N-])c(=O)c2cc([N+](=O)[O-])ccc12 | < 1 |  | < 1 | < 1 | 155 | < 1 | 251 |  |
| COc1cc2c3c(n(CCCN=[N+]=[N-])c(=O)c2cc1OC)-c1ccc(N(C)C)cc1C3=O | > 100000 | > 100000 |  | > 100000 | > 100000 | > 100000 | > 100000 | > 100000 |
| CCc1ccc2c(c1)C(=O)c1c-2n(CCCN=[N+]=[N-])c(=O)c2cc(OC)c(OC)cc12 | 56200 | 91200 |  | 57500 | > 100000 | > 100000 | > 100000 | > 100000 |
| COc1cc2c3c(n(CCCN)c(=O)c2cc1OC)-c1ccc(N)cc1C3=O |  | 1380 | 263 | 316 | 1820 | 2400 | 4170 | 2570 |
| COC(=O)c1ccc2c(c1)C(=O)c1c-2n(CCCCl)c(=O)c2cc(OC)c(OC)cc12 | > 100000 | > 100000 | > 100000 |  | > 100000 | > 100000 | > 100000 | > 100000 |
| Cc1ccc2c(c1)C(=O)c1c-2n(CCCN)c(=O)c2cc([N+](=O)[O-])ccc12 | 191 |  | 229 | 603 | 324 | 115 | 316 | 229 |
| NCCCn1c2c(c3ccc([N+](=O)[O-])cc3c1=O)C(=O)c1ccccc1-2 |  |  | < 5 |  |  | 14 |  | 9 |
| NCCCn1c2c(c3ccc([N+](=O)[O-])cc3c1=O)C(=O)c1cc(Cl)ccc1-2 | < 10 | < 10 | < 10 | < 10 |  | < 10 |  | < 10 |
| O=C1c2cc(F)ccc2-c2c1c1ccc([N+](=O)[O-])cc1c(=O)n2CCCBr | 2290 | 2290 | 7240 |  | 46800 | 3390 | 37200 | 27500 |
| O=C1c2cc(Br)ccc2-c2c1c1ccc([N+](=O)[O-])cc1c(=O)n2CCCCl | 3630 |  | 3720 | 661 | 575 | 214 | 282 | 19 |
| CCc1ccc2c(c1)C(=O)c1c-2n(CCCN)c(=O)c2cc(OC)c(OC)cc12 | 1820 | 1820 |  | 1620 | 1510 | 1620 | 2000 | 1740 |
| COc1cc2c3c(n(CCCN)c(=O)c2cc1OC)-c1ccc(C#N)cc1C3=O | 3980 | 17000 | 15900 |  | 19100 | 12300 | 18600 | 16600 |
| COc1cc2c3c(n(CCCN)c(=O)c2cc1OC)-c1ccc([N+](=O)[O-])cc1C3=O | 617 | 11500 | 1320 | 3720 | 16600 | 2090 | 15800 | 11700 |
| COc1ccc2c(c1)C(=O)c1c-2n(CCCN)c(=O)c2cc([N+](=O)[O-])ccc12 | < 10 | < 10 | < 10 | < 10 |  |  |  | < 10 |
| COc1cc2c3c(n(C)c(=O)c2cc1OC)-c1cc2c(cc1C3=O)OCO2 | 1300 | 4200 | 35000 |  |  | 37000 | 96000 | 68000 |
